Reference: patent US20090253693A1, “2H-BENZO[b][1,4]OXAZIN-3(4H)-ONE DERIVATIVES FOR USE AS STEAROYL CoA DESATURASE INHIBITORS” (priority 2008, published 2009)
Counter-ions that a name gives are not always drawn.

Target: T1, SCD (stearoyl-CoA desaturase) (Rattus norvegicus, UniProt P07308)
T1 construct: The rat liver microsomes were collected according to the procedure described in Ozols (1990) Methods Enzm, 182:225; from tissue; host or cells: liver microsomes of male Sprague Dawley rats after induction with a carbohydrate-rich diet
T1 sequence (P07308 1-358): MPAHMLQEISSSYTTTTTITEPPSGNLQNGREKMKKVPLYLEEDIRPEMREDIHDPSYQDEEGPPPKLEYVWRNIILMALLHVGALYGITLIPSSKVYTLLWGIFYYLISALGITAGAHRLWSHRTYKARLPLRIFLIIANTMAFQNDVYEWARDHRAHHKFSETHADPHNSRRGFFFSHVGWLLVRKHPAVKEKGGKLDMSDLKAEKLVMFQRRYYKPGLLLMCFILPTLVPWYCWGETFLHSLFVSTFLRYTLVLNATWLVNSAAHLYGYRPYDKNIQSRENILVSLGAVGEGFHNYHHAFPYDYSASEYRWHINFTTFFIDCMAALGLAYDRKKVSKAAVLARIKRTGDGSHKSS
Assay: SCD assay with rat liver microsomes ([3H]stearoyl CoA desaturation, adapted from Talamo and Bloch)
Format: biochemical
Conditions: rat liver microsomes 0.2 mg/ml final, 30 min preincubation, stearoyl CoA substrate, 45 min, room temperature
Description: The identification of compounds of the invention as SCD inhibitors was readily accomplished using the SCD enzyme and microsomal assay procedure described in Talamo and Bloch (1969) Analytical Biochemistry 29:300-304.
The rat liver microsomes were collected according to the procedure described in Ozols (1990) Methods Enzm, 182:225.
Male Sprague Dawley Rats were placed on regimented fasting protocol for one week to stimulate SCD enzymatic activity. 48-hour periods were alternated between feeding and fasting to induce and down-regulate SCD activity with SCD activity being induced via carbohydrate rich diet prior to liver perfusion and collection.
The supernatant was then aspirated off and the collected microsomal pellet washed in 25 mL of Glycerol PBS (1× PBS 7.4, 20% Glycerol) and resuspended in 4-5 volumes of Glycerol PBS.
SCD was determined in the desaturase assay buffer. This assay buffer contained 0.1 M Tris buffer, pH 7.2, 2 mM NADH, 4.8 mM ATP, 0.5 mM CoA, 4.8 mM MgCl2, and 0.1% BSA.
The Procedure for the SCD Assay (Adapted from Talamo and Bloch (1969) Analytical Biochemistry 29:300-304)
1 μl of each compound of Formula I was added to an assay plate by a low volume (0.5-10 μL) multichannel pipette. A DMSO control was also prepared. The microsomes were quickly thawed and added to assay buffer so that a concentration of 0.4 mg/ml was achieved (0.2 mg/ml assay final). 50 μl of the microsome suspension in assay buffer was then added into each well in the compound assay plate, the plate was covered, and the microsomes preincubated with the compounds for 30 minutes on the orbital shaker, 50-75 rpm, at room temperature.
After preincubation, the reaction was initiated by the addition of 50 μl of substrate solution (20 μM Stearoyl CoA, [3H]Stearoyl CoA, 74nCi) to the preincubated microsomes/compound suspensions in MilliQ (Millipore) H2O. The reaction mixtures were then incubated for 45 minutes on the orbital shaker at 50-75 rpm at room temperature.
The reaction was terminated by the addition of 10 μl of 21% trichloroacetic acid (TCA) to the reaction mixture followed incubation on the orbital shaker for 30 minutes at 50-75 rpm at room temperature followed by centrifugation for 5 minutes at 3700 rpm.
50 μl of a 6% Bio-Bead suspension in H2O was added to the reaction mixture and the assay plate was sealed. The Bio-Bead mixture was incubated on the orbital shaker for 1 hour, 100-150 rpm at room temperature, and then the mixture was centrifuged at 2000 g for 5 minutes to pellet the Bio-Beads.
25 μl of the supernatant was harvested from each well and transferred to a detection plate. 100 μl of OptiPhase SuperMix scintillation cocktail (containing sufficient NaOH to neutralize the TCA) was added and the solutions mixed by vigorous shaking (300-400 rpm) for 5 minutes at room temperature.

| Structure (SMILES) | IC50 |
| --- | --- |
| NC(=O)CCN1C(=O)COc2ccc(NCc3ccc(Cl)c(Cl)c3)cc21 [Compound 1, 3-(6-(3,4-dichlorobenzylamino)-3-oxo-2H-benzo[b][1,4]oxazin-4(3H)-yl)propanamide] | 53.5 nM |
| CC(=O)NCCN1C(=O)COc2ccc(NCc3ccccc3)cc21 [Compound 2, N-(2-(6-(benzylamino)-3-oxo-2H-benzo[b][1,4]oxazin-4(3H)-yl)ethyl)acetamide hydrochloride] | 14900 nM |
| CC(=O)NCCN1C(=O)COc2ccc(NCc3ccc(Cl)c(Cl)c3)cc21 [Compound 3, N-(2-(6-(3,4-dichlorobenzylamino)-3-oxo-2H-benzo[b][1,4]oxazin-4(3H)-yl)ethyl)acetamide hydrochloride] | 10.7 nM |
| O=C1COc2ccc(NCc3ccc(Cl)c(Cl)c3)cc2N1CCOc1ccccc1 [Compound 4, 6-(3,4-dichlorobenzylamino)-4-(2-phenoxyethyl)-2H-benzo[b][1,4]oxazin-3(4H)-one] | 22200 nM |
| CC(=O)NCCN1C(=O)COc2ccc(NCc3ccc(Cl)c(C(F)(F)F)c3)cc21 [Compound 5, N-(2-(6-(4-chloro-3-(trifluoromethyl)benzylamino)-3-oxo-2H-benzo[b][1,4]oxazin-4(3H)-yl)ethyl)acetamide hydrochloride] | 4.87 nM |
| CC(=O)NCCN1C(=O)COc2ccc(NCc3ccc(F)c(C(F)(F)F)c3)cc21 [Compound 6, N-(2-(6-(4-fluoro-3-(trifluoromethyl)benzylamino)-3-oxo-2H-benzo[b][1,4]oxazin-4(3H)-yl)ethyl)acetamide hydrochloride] | 7.8 nM |
| O=C(NCCN1C(=O)COc2ccc(NCc3ccc(Cl)c(Cl)c3)cc21)c1ccccc1 [Compound 7, N-(2-(6-(3,4-dichlorobenzylamino)-3-oxo-2H-benzo[b][1,4]oxazin-4(3H)-yl)ethyl)benzamide] | 2.52 nM |
| O=C(CO)NCCN1C(=O)COc2ccc(NCc3ccc(Cl)c(Cl)c3)cc21 [Compound 8, N-(2-(6-(3,4-dichlorobenzylamino)-3-oxo-2H-benzo[b][1,4]oxazin-4(3H)-yl)ethyl)-2-hydroxyacetamide hydrochloride] | 1.39 nM |

Now from value to compound:

| IC50 | Structure (SMILES) |
| --- | --- |
| 1 to 10 nM | CC(=O)NCCN1C(=O)C(C)Oc2ccc(NCc3ccc(Cl)c(Cl)c3)cc21 (racemic) [Compound 9, (±)-N-(2-(6-(3,4-dichlorobenzylamino)-2-methyl-3-oxo-2H-benzo[b][1,4]oxazin-4(3H)-yl)ethyl)acetamide] |
| 1 to 10 nM | CC(=O)NCCN1C(=O)C(C)Oc2ccc(NCc3ccc(Cl)c(C(F)(F)F)c3)cc21 (racemic) [Compound 10, (±)-N-(2-(6-(4-chloro-3-(trifluoromethyl)benzylamino)-2-methyl-3-oxo-2H-benzo[b][1,4]oxazin-4(3H)-yl)ethyl)acetamide] |
| 80 nM | CC1Oc2ccc(NCc3ccc(Cl)c(Cl)c3)cc2N(CCNC(=O)CO)C1=O (racemic) [Compound 11, (±)-N-(2-(6-(3,4-dichlorobenzylamino)-2-methyl-3-oxo-2H-benzo[b][1,4]oxazin-4(3H)-yl)ethyl)-2-hydroxyacetamide] |
| 1 to 10 nM | CC1Oc2ccc(NCc3ccc(Cl)c(C(F)(F)F)c3)cc2N(CCNC(=O)CO)C1=O (racemic) [Compound 12, (±)-N-(2-(6-(4-chloro-3-(trifluoromethyl)benzylamino)-2-methyl-3-oxo-2H-benzo[b][1,4]oxazin-4(3H)-yl)ethyl)-2-hydroxyacetamide] |
